Data: patent US20230142338A1, “THIOPHENYL DERIVATIVES USEFUL FOR MODULATING NUCLEIC ACID SPLICING” (REMIX THERAPEUTICS INC., priority 2020, published 2023)
Structures can show the parent of a compound that is named as a salt.

Legend:
Type in all cases: cell-based
HTT AJ mRNA = test: Splicing assay (RT-qPCR): increase in HTT alternative junction (AJ) mRNA; conditions: A673 or K562 cells, 24 hours treatment; concentration having 50% response in AJ mRNA increase
Method: (§1) Compounds described herein were used to modulate RNA transcript abundance in cells. The expression of a target mRNA was measured by detecting the formation of an exon-exon junction in the canonical transcript (CJ). A compound mediated exon-inclusion event was detected by observing an increase in formation of a new junction with an alternative exon (AJ). Real-time qPCR assays were used to detect these splicing switches and interrogate the potency of various compounds towards different target genes. A high-throughput real time quantitative PCR (RT-qPCR) assay was developed to measure these two isoforms of the mRNA (CJ and AJ) for an exemplary gene, HTT, together with a control housekeeping gene, GAPDH or GUSB or PPIA, used for normalization. Briefly, the A673 or K562 cell line was treated with various compounds described herein (e.g., compounds of Formula (I)). After treatment, the levels of the HTT mRNA targets were determined from each sample of cell lysate by cDNA synthesis followed by qPCR.
(§2) The A673 cell line was cultured in DMEM with 10% FBS. Cells were diluted with full growth media and plated in a 96-well plate (15,000 cells in 100 ul media per well). The plate was incubated at 37° C. with 5% CO2 for 24 hours to allow cells to adhere. An 11-point 3-fold serial dilution of the compounds was made in DMSO then diluted in media in an intermediate plate. Compounds were transferred from the intermediate plate to the cell plate with the top dose at a final concentration of 10 uM in the well. Final DMSO concentration was kept at or below 0.25%. The cell plate was returned to the incubator at 37° C. with 5% CO2 for an additional 24 hours.
(§3) The K562 cell line was cultured in IMDM with 10% FBS. For K562, cells were diluted with full growth media and plated in either a 96-well plate (50,000 cells in 50 uL media per well) or a 384-well plate (8,000-40,000 cells in 45 uL media per well). An 11-point 3-fold serial dilution of the compounds were made in DMSO then diluted in media in an intermediate plate. Compound was transferred from the intermediate plate to the cell plate with the top dose at a final concentration of 10 uM in the well. Final DMSO concentration was kept at or below 0.25%. Final volume was 100 uL for 96-well plate and 50 uL for 384-well plate. The cell plate was then placed in an incubator at 37° C. with 5% CO2 for 24 hours.
(§4) The cells were then gently washed with 50 uL-100 uL cold PBS before proceeding to addition of lysis buffer. 30 uL-50 uL of room temperature lysis buffer with DNAse I (and optionally RNAsin) was added to each well. Cells were shaken/mixed thoroughly at room temperature for 5-10 minutes for lysis to take place and then 3 uL-5 uL of room temperature stop solution was added and wells were shaken/mixed again. After 2-5 minutes, the cell lysate plate was transferred to ice for RT-qPCR reaction setup. The lysates could also be frozen at −80° C. for later use.
(§5) In some cases, a direct lysis buffer was used. An appropriate volume of 3× lysis buffer (10 mM Tris, 150 mM NaCl, 1.5%-2.5% Igepal and 0.1-1 U/uL RNAsin, pH 7.4) was directly added to either K562 or A673 cells in media and mixed by pipetting 3 times. The plates were then incubated at room temperature with shaking/rocking for 20-50 minutes to allow for lysis to take place. After this time, the cell lysate plate was transferred to ice to set up for the RT-qPCR reactions. The lysates could also be frozen at −80° C. for later use.
(§6) To set up 10 uL RT-qPCR reactions, cell lysates were transferred to 384-well qPCR plates containing the master mix according to the table below. The plates were sealed, gently vortexed, and spun down before the run. The volumes were adjusted accordingly in some instances where the reaction was carried in 20 uL. The table below summarizes the components of the RT-qPCR reactions:
(§7) The RT-qPCR reaction was performed using a QuantStudio (ThermoFisher) under the following fast cycling conditions. […]

HTT CJ mRNA [1] = test: Gene panel canonical junction qPCR assay: HTT; conditions: Table 3, concentration having 50% response in CJ decrease, read-out: HTT IC50 (decrease in CJ mRNA levels)
Method: as §1, §2, §3, §4, §5, §6, §7

SMN2 CJ mRNA = test: Gene panel canonical junction qPCR assay: SMN2; conditions: Table 3, concentration having 50% response in CJ decrease, read-out: SMN2 IC50 (decrease in CJ mRNA levels)
Method: as §1, §2, §3, §4, §5, §6, §7

HTT CJ mRNA [2] = test: Splicing assay (RT-qPCR): decrease in HTT canonical junction (CJ) mRNA; conditions: A673 or K562 cells, 24 hours treatment; concentration having 50% response in CJ mRNA decrease
Method: as §1, §2, §3, §4, §5, §6, §7

Target C CJ mRNA = test: Gene panel canonical junction qPCR assay: Target C; conditions: Table 3, concentration having 50% response in CJ decrease, read-out: Target C IC50 (decrease in CJ mRNA levels)
Method: as §1, §2, §3, §4, §5, §6, §7

IC50 (HTT CJ mRNA [1]) | IC50 (SMN2 CJ mRNA) | IC50 (Target C CJ mRNA) | SMILES | AC50 (HTT AJ mRNA) | AC50 (HTT CJ mRNA [2])
1 to 10 µM | 0.1 to 1 µM | > 0.01 µM | Cc1cn2cc(NC(=O)c3sc(C4CCNCC4)cc3F)c(C)cc2n1 [Compound 178, N-[2,7-dimethylimidazo[1,2-a]pyridin-6-yl]-3-fluoro-5-(piperidin-4-yl)thiophene-2-carboxamide] | 1 to 10 µM | 1 to 10 µM
0.1 to 1 µM | 1 to 10 µM | 1 to 10 µM | Cc1cn2cc(NC(=O)c3sc(C4CCNCC4)cc3F)ncc2n1 [Compound 179, 3-fluoro-N-[2-methylimidazo[1,2-a]pyrazin-6-yl]-5-(piperidin-4-yl)thiophene-2-carboxamide] | 1 to 10 µM | 0.1 to 1 µM
0.1 to 1 µM | < 0.1 µM | 1 to 10 µM | Cc1cn2cc(NC(=O)c3sc(C4CCNCC4)cc3F)cc(C)c2n1 [Compound 180, N-[2,8-dimethylimidazo[1,2-a]pyridin-6-yl]-3-fluoro-5-(piperidin-4-yl)thiophene-2-carboxamide] | 1 to 10 µM | 0.1 to 1 µM
0.1 to 1 µM | < 0.1 µM | 1 to 10 µM | Cc1cn2cc(NC(=O)c3sc(C4CCNCC4)cc3F)cc(Cl)c2n1 [Compound 181, N-[8-chloro-2-methylimidazo[1,2-a]pyridin-6-yl]-3-fluoro-5-(piperidin-4-yl)thiophene-2-carboxamide] | 0.1 to 1 µM | 0.1 to 1 µM
> 0.01 µM | > 0.01 µM | > 0.01 µM | Cn1cc2ccc(NC(=O)c3sc(C4CCNCC4)cc3F)cc2n1 [Compound 182, 3-fluoro-N-(2-methylindazol-6-yl)-5-(piperidin-4-yl)thiophene-2-carboxamide] | > 10 µM | > 10 µM
> 0.01 µM | > 0.01 µM | > 0.01 µM | Cn1cc2c(F)cc(NC(=O)c3sc(C4CCNCC4)cc3F)cc2n1 [Compound 183, 3-fluoro-N-(4-fluoro-2-methylindazol-6-yl)-5-(piperidin-4-yl)thiophene-2-carboxamide] | > 10 µM | > 10 µM
0.1 to 1 µM | < 0.1 µM | 0.1 to 1 µM | Cc1nc2c(F)cc(NC(=O)c3sc(C4CCNCC4)cc3F)cc2o1 [Compound 184, 3-fluoro-N-(4-fluoro-2-methyl-1,3-benzoxazol-6-yl)-5-(piperidin-4-yl)thiophene-2-carboxamide] | 0.1 to 1 µM | 0.1 to 1 µM
0.1 to 1 µM | < 0.1 µM | 1 to 10 µM | Cc1nc2c(F)cc(NC(=O)c3sc(C4CCNCC4)cc3F)cc2s1 [Compound 185, 3-fluoro-N-(4-fluoro-2-methyl-1,3-benzothiazol-6-yl)-5-(piperidin-4-yl)-thiophene-2-carboxamide] | 1 to 10 µM | 0.1 to 1 µM
> 0.01 µM | > 0.01 µM | > 0.01 µM | Cc1cn2cc(NC(=O)c3cc(Cl)c(N4CCNC(C)C4)s3)cc(F)c2n1 (stereo not shown) [Compound 187] | > 10 µM | > 10 µM

The next lines start with the compound.

SMILES | IC50 (HTT CJ mRNA [1]) | IC50 (SMN2 CJ mRNA) | IC50 (Target C CJ mRNA) | AC50 (HTT AJ mRNA) | AC50 (HTT CJ mRNA [2])
Cc1cn2cc(NC(=O)c3sc(N(C)C4CCN(C)CC4)cc3F)cc(F)c2n1 [Compound 150, 3-fluoro-N-[8-fluoro-2-methylimidazo[1,2-a]pyridin-6-yl]-5-[methyl(1-methylpiperidin-4-yl)amino]thiophene-2-carboxamide] | 1 to 10 µM | 1 to 10 µM | 1 to 10 µM | > 10 µM | 1 to 10 µM
CC1CN(c2cc(F)c(C(=O)Nc3ccc4cn(C)nc4c3)s2)CCN1 (stereo not shown) [Compound 162, 3-fluoro-N-(2-methylindazol-6-yl)-5-(3-methylpiperazin-1-yl)thiophene-2-carboxamide] | > 0.01 µM | > 0.01 µM | > 0.01 µM | > 10 µM | > 10 µM
CC1CN(c2cc(F)c(C(=O)Nc3cc(F)c4cn(C)nc4c3)s2)CCN1 (stereo not shown) [Compound 163, 3-fluoro-N-(4-fluoro-2-methylindazol-6-yl)-5-(3-methylpiperazin-1-yl)thiophene-2-carboxamide] | > 0.01 µM | > 0.01 µM | < 0.1 µM | > 10 µM | > 10 µM
Cc1nc2c(F)cc(NC(=O)c3sc(N4CCNC(C)C4)cc3F)cc2o1 (stereo not shown) [Compound 164, 3-fluoro-N-(4-fluoro-2-methyl-1,3-benzoxazol-6-yl)-5-(3-methylpiperazin-1-yl)thiophene-2-carboxamide] | 1 to 10 µM | 0.1 to 1 µM | 0.1 to 1 µM | 1 to 10 µM | 1 to 10 µM
Cc1nc2c(F)cc(NC(=O)c3sc(N4CCNC(C)C4)cc3F)cc2s1 (stereo not shown) [Compound 165, 3-fluoro-N-(4-fluoro-2-methyl-1,3-benzothiazol-6-yl)-5-(3-methylpiperazin-1-yl)thiophene-2-carboxamide] | > 0.01 µM | 1 to 10 µM | 0.1 to 1 µM | > 10 µM | > 10 µM
Cc1cn2cc(NC(=O)c3sc(N4CCNC(C)C4)cc3F)c(C)cc2n1 (stereo not shown) [Compound 166, N-[2,7-dimethylimidazo[1,2-a]pyridin-6-yl]-3-fluoro-5-(3-methylpiperazin-1-yl)thiophene-2-carboxamide] | > 0.01 µM | 1 to 10 µM | > 0.01 µM | > 10 µM | > 10 µM
Cc1cn2cc(NC(=O)c3sc(N4CCNC(C)C4)cc3F)ncc2n1 (stereo not shown) [Compound 167, 3-fluoro-N-[2-methylimidazo[1,2-a]pyrazin-6-yl]-5-(3-methylpiperazin-1-yl)thiophene-2-carboxamide] | > 0.01 µM | 0.1 to 1 µM | > 0.01 µM | > 10 µM | > 10 µM
Cc1cn2nc(NC(=O)c3sc(N4CCNC(C)C4)cc3F)nc2c(C)n1 (stereo not shown) [Compound 169, hydrochloride] | > 0.01 µM | > 0.01 µM | > 0.01 µM | > 10 µM | > 10 µM
Cc1cn2cc(NC(=O)c3sc(N4CCNC(C)C4)cc3F)cc(C)c2n1 (stereo not shown) [Compound 172, N-[2,8-dimethylimidazo[1,2-a]pyridin-6-yl]-3-fluoro-5-(3-methylpiperazin-1-yl)thiophene-2-carboxamide] | > 0.01 µM | 1 to 10 µM | > 0.01 µM | > 10 µM | > 10 µM
COc1cc(C2CCNCC2)sc1C(=O)Nc1cc(F)c2nc(C)cn2c1 [Compound 173, N-[8-fluoro-2-methylimidazo [1,2-a]pyridin-6-yl]-3-methoxy-5-(piperidin-4-yl)thiophene-2-carboxamide] | > 0.01 µM | > 0.01 µM | > 0.01 µM | > 10 µM | > 10 µM
Cc1cn2cc(NC(=O)c3ccc(C4CCNCC4)s3)cc(F)c2n1 [Compound 174, N-[8-fluoro-2-methylimidazo[1,2-a]pyridin-6-yl]-5-(piperidin-4-yl) thiophene-2-carboxamide] | 0.1 to 1 µM | 0.1 to 1 µM | 1 to 10 µM | 1 to 10 µM | 1 to 10 µM
